In the supplement of paper PMC10307832:

Assays:
Assay in all cases: relative viability (nuclei count vs DMSO), 5 days (fraction); higher = more cells survive
[1] = system: LK-2
How it was run: (§1)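 Five library-drug doses in √10 steps were combined with a fixed anchor-drug dose, or a single drug was given alone, by pin tool to lung cancer cell lines in 1536-well plates the day after seeding. Nuclei were stained and counted after 5 days. Relative viability is the nuclei count in treated wells over that in vehicle wells, taken as the median of duplicate plates.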

[2] = system: NCI-H520
How it was run: as §1

[3] = system: NCI-H1355
How it was run: as §1

[4] = system: LCLC-103H
How it was run: as §1

[5] = system: COR-L 105
How it was run: as §1

[6] = system: NCI-H1648
How it was run: as §1

[7] = system: NCI-H522
How it was run: as §1

[8] = system: A549
How it was run: as §1

`COc1nc(C)cnc1NS(=O)(=O)c1cccnc1-c1ccc(-c2nnco2)cc1` [Zibotentan] + Nc1ncn([C@H]2C[C@H](O)[C@@H](CO)O2)c(=O)n1 [Decitabine] (partner 2 µM) was tested, and the relative viability ([1]; first compound 0.08 µM) was 0.387, the relative viability ([1]; first compound 0.253 µM) was 0.289 and the relative viability ([1]; first compound 0.8 µM) was 0.317. It also gave a relative viability ([1]; first compound 2.53 µM) of 0.213, a relative viability ([2]; first compound 0.08 µM) of 0.62 and a relative viability ([2]; first compound 0.253 µM) of 0.441. The relative viability ([2]; first compound 0.8 µM) was 0.514, the relative viability ([2]; first compound 2.53 µM) was 0.575 and the relative viability ([3]; first compound 0.08 µM) was 0.346. It also gave a relative viability ([3]; first compound 0.253 µM) of 0.337, a relative viability ([3]; first compound 0.8 µM) of 0.368 and a relative viability ([3]; first compound 2.53 µM) of 0.35. For the same compound, the relative viability ([4]; first compound 0.08 µM) was 0.718, the relative viability ([4]; first compound 0.253 µM) was 0.727 and the relative viability ([4]; first compound 0.8 µM) was 0.738. It also gave a relative viability ([4]; first compound 2.53 µM) of 0.709, a relative viability ([5]; first compound 0.08 µM) of 0.634 and a relative viability ([5]; first compound 0.253 µM) of 0.609. It also gave a relative viability ([5]; first compound 0.8 µM) of 0.711, a relative viability ([5]; first compound 2.53 µM) of 0.615 and a relative viability ([6]; first compound 0.08 µM) of 0.544. For the same compound, the relative viability ([6]; first compound 0.253 µM) was 0.464, the relative viability ([6]; first compound 0.8 µM) was 0.519 and the relative viability ([6]; first compound 2.53 µM) was 0.461. The relative viability ([7]; first compound 0.08 µM) was 0.677, the relative viability ([7]; first compound 0.253 µM) was 0.5 and the relative viability ([7]; first compound 0.8 µM) was 0.718. It also gave a relative viability ([7]; first compound 2.53 µM) of 0.756, a relative viability ([8]; first compound 0.08 µM) of 0.232 and a relative viability ([8]; first compound 0.253 µM) of 0.266. For the same compound, the relative viability ([8]; first compound 0.8 µM) was 0.305 and the relative viability ([8]; first compound 2.53 µM) was 0.285.
In the case of `CCN(CC)CCCCNc1ncc2cc(-c3cc(OC)cc(OC)c3)c(NC(=O)NC(C)(C)C)nc2n1` + Nc1ncn([C@H]2C[C@H](O)[C@@H](CO)O2)c(=O)n1 [Decitabine] (partner 2 µM), the relative viability ([1]; first compound 0.01 µM) is reported as 0.305, the relative viability ([1]; first compound 0.03162 µM) is reported as 0.268 and the relative viability ([1]; first compound 0.1 µM) is reported as 0.192. The relative viability ([1]; first compound 0.3162 µM) was 0.217, the relative viability ([1]; first compound 1 µM) was 0.175 and the relative viability ([2]; first compound 0.01 µM) was 0.51. The relative viability ([2]; first compound 0.03162 µM) was 0.466, the relative viability ([2]; first compound 0.1 µM) was 0.501 and the relative viability ([2]; first compound 0.3162 µM) was 0.313. The relative viability ([2]; first compound 1 µM) was 0.202, the relative viability ([3]; first compound 0.01 µM) was 0.364 and the relative viability ([3]; first compound 0.03162 µM) was 0.368. The relative viability ([3]; first compound 0.1 µM) was 0.36, the relative viability ([3]; first compound 0.3162 µM) was 0.396 and the relative viability ([3]; first compound 1 µM) was 0.339. It also gave a relative viability ([4]; first compound 0.01 µM) of 0.775, a relative viability ([4]; first compound 0.03162 µM) of 0.782 and a relative viability ([4]; first compound 0.1 µM) of 0.758. For the same compound, the relative viability ([4]; first compound 0.3162 µM) was 0.809, the relative viability ([4]; first compound 1 µM) was 0.602 and the relative viability ([5]; first compound 0.01 µM) was 0.591. For the same compound, the relative viability ([5]; first compound 0.03162 µM) was 0.777, the relative viability ([5]; first compound 0.1 µM) was 0.692 and the relative viability ([5]; first compound 0.3162 µM) was 0.786. For the same compound, the relative viability ([5]; first compound 1 µM) was 0.669, the relative viability ([6]; first compound 0.01 µM) was 0.407 and the relative viability ([6]; first compound 0.03162 µM) was 0.565. The relative viability ([6]; first compound 0.1 µM) was 0.499, the relative viability ([6]; first compound 0.3162 µM) was 0.417 and the relative viability ([6]; first compound 1 µM) was 0.383. It also gave a relative viability ([7]; first compound 0.01 µM) of 0.625, a relative viability ([7]; first compound 0.03162 µM) of 0.573 and a relative viability ([7]; first compound 0.1 µM) of 0.748. The relative viability ([7]; first compound 0.3162 µM) was 0.651, the relative viability ([7]; first compound 1 µM) was 0.548 and the relative viability ([8]; first compound 0.01 µM) was 0.27. It also gave a relative viability ([8]; first compound 0.03162 µM) of 0.27, a relative viability ([8]; first compound 0.1 µM) of 0.312 and a relative viability ([8]; first compound 0.3162 µM) of 0.212. For the same compound, the relative viability ([8]; first compound 1 µM) was 0.288.
